From ChEMBL document CHEMBL3779862, “Amyloid cascade in Alzheimer's disease: Recent advances in medicinal chemistry” (Eur J Med Chem, 2016)

Columns and labels:
[1] = target: T1, Amyloid-beta precursor protein (Homo sapiens, UniProt P05067); test: Inhibition of human amyloid beta (1 to 42) aggregation at 100 uM measured after 72 hrs by Thioflavin T-based fluorometric assay
Acetylcholinesterase = Acetylcholinesterase (Homo sapiens, UniProt P22303); test: Inhibition of human AChE assessed as hydrolytic activity using acetylthiocholine iodide as substrate measured for 15 mins by Ellmans assay
Sequence of Acetylcholinesterase (P22303 whole entry): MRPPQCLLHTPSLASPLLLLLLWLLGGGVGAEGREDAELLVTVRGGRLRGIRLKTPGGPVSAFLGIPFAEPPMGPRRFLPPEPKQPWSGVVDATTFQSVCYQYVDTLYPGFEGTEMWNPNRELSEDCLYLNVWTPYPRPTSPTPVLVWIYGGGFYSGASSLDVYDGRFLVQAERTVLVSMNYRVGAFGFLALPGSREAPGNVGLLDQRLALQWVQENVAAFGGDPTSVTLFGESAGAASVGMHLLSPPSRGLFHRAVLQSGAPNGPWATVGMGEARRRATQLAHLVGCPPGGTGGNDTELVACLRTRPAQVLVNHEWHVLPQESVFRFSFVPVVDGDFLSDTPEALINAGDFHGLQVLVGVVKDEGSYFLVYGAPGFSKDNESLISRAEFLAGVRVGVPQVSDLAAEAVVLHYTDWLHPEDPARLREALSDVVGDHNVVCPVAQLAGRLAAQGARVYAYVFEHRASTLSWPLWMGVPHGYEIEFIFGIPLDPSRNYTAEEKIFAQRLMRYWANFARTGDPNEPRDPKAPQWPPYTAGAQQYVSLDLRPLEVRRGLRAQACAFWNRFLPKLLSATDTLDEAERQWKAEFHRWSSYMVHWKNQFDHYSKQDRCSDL

Cholinesterase = Cholinesterase (Homo sapiens, UniProt P06276); test: Inhibition of human BuChE assessed as hydrolytic activity using butyrylthiocholine iodide as substrate measured for 15 mins by Ellmans assay
Sequence of Cholinesterase (P06276 whole entry): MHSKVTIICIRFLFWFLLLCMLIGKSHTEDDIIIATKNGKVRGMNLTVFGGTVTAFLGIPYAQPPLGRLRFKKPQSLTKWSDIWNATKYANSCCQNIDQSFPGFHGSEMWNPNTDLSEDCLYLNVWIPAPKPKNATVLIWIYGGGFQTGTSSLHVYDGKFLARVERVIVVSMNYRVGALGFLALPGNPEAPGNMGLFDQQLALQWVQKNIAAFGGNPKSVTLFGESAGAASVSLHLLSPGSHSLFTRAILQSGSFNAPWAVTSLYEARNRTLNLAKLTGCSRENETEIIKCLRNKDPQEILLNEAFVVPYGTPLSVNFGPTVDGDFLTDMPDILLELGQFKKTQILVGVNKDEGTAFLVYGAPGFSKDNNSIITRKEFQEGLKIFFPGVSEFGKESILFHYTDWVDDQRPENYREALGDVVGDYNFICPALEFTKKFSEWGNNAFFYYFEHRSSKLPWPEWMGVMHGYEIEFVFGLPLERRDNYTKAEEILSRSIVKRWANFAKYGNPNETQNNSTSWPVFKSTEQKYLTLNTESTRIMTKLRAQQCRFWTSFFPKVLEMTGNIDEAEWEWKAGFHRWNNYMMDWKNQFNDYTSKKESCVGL

[2] = target: T1, Amyloid-beta precursor protein; test: Inhibition of amyloid beta (1 to 42) (unknown origin) aggregation at 50 uM measured after 3 hrs by Thioflavin T-based fluorometric assay
[3] = target: T1, Amyloid-beta precursor protein; test: Inhibition of amyloid beta (1 to 42) (unknown origin) aggregation measured after 24 hrs by Thioflavin T-based fluorometric assay

T1 sequence (P05067 whole entry): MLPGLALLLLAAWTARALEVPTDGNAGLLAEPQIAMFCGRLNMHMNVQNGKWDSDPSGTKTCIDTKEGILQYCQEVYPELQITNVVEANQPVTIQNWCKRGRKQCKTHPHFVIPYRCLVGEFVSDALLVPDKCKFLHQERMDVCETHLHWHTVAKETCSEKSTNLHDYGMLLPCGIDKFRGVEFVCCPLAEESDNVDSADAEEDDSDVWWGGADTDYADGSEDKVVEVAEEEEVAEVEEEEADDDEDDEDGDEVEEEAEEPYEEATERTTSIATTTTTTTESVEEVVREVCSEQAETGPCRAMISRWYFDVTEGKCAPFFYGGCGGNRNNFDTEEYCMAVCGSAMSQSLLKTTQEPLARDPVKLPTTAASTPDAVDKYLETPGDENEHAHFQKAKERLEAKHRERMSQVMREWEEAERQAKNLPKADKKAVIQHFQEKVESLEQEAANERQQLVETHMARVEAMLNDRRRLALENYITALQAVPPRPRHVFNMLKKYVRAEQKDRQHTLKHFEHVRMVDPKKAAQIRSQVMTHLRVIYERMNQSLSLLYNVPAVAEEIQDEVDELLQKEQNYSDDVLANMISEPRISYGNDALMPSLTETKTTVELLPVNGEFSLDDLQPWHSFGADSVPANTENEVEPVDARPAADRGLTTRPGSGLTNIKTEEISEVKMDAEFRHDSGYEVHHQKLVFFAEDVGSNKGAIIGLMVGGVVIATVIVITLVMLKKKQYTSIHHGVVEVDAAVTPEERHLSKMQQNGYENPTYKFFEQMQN

SMILES	inhibition [1] [%]	IC50 (Acetylcholinesterase) [µM]	IC50 (Cholinesterase) [µM]	inhibition [2] [%]	IC50 [3] [µM]
COc1nc(Oc2ccc(C(=O)OCC(C)N(C)C)cc2)nc(Oc2ccc(C(=O)OCC(C)N(C)C)cc2)n1 (centres undefined)	58.4	111	> 200		
CC(C)CCNC(=O)c1cc(Cc2ccccc2)cc(Oc2ccccc2)n1				71	
Fc1ccc(-c2cc(NCCNc3cc(-c4ccc(F)cc4)[nH]n3)n[nH]2)cc1					40.5
Cc1ccc(-c2cc(NCCNc3cc(-c4cccs4)[nH]n3)n[nH]2)cc1					29
C[N+](C)(C)CCOC(=O)c1ccc(Oc2nc(Oc3ccc(C(=O)OCC[N+](C)(C)C)cc3)nc(Oc3ccc(C(=O)OCC[N+](C)(C)C)cc3)n2)cc1	50.9	0.3	3.9		
O=C(NC1C2CC3CC(C2)CC1C3)c1nc(Cc2ccccc2)cc(Oc2ccccc2)n1 (centres undefined)				47	
CC(COC(=O)c1ccc(Oc2nc(Oc3ccc(C(=O)OCC(C)N(C)C)cc3)nc(Oc3ccc(C(=O)OCC(C)N(C)C)cc3)n2)cc1)N(C)C (centres undefined)	68.5	80.8	164		
CN(C)c1ccc(-c2cc(NCCNc3cc(-c4ccc(N(C)C)cc4)[nH]n3)n[nH]2)cc1					7.5
